Test results as given in patent US7118895B2, “Process for producing aglycon by using diglycosidase and flavor-improved food containing the aglycon and converting agent to be used in the process” (Amano Enzyme Inc., priority 2000, dated 2006).

Tested on: Crude diglycosidase
Assay: Examination of temperature in the conversion into isoflavone aglycons by diglycosidase using soybean materials
Type: biochemical, Penicillium multicolor IAM7153
Design: Decomposition efficiency of glycitin family in roasted soy flour / Decomposition efficiency of daidzin family in roasted soy flour / Decomposition efficiency of genistin family in soymilk / Decomposition efficiency of daidzin family in soymilk / Decomposition efficiency of glycitin family in defatted soybean / Decomposition efficiency of daidzin family in defatted soybean: concentration or dose not given beside the values
In short: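 Temperature series (30-80° C.) of crude diglycosidase, diluted to 1.88 AU/mL in 20 mM acetate pH 4.0, acting on roasted soy flour, soymilk, defatted soybean or soy protein concentrate. Samples quenched with ethanol after 0-6 h, centrifuged, filtered and analyzed by HPLC for glycosides versus aglycons.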

[1] = 30 °C, heat treatment of enzyme: no, 0 h
[2] = 30 °C, heat treatment of enzyme: no, 1 h
[3] = 30 °C, heat treatment of enzyme: no, 3 h
[4] = 30 °C, heat treatment of enzyme: no, 6 h
[5] = 30 °C, heat treatment of enzyme: yes, 6 h
[6] = 45 °C, heat treatment of enzyme: no, 0 h
[7] = 45 °C, heat treatment of enzyme: no, 1 h
[8] = 45 °C, heat treatment of enzyme: no, 3 h
[9] = 45 °C, heat treatment of enzyme: no, 6 h
[10] = 45 °C, heat treatment of enzyme: yes, 6 h
[11] = 55 °C, heat treatment of enzyme: no, 0 h
[12] = 55 °C, heat treatment of enzyme: no, 1 h
[13] = 55 °C, heat treatment of enzyme: no, 3 h
[14] = 55 °C, heat treatment of enzyme: no, 6 h
[15] = 55 °C, heat treatment of enzyme: yes, 6 h
[16] = 65 °C, heat treatment of enzyme: no, 0 h
[17] = 65 °C, heat treatment of enzyme: no, 1 h
[18] = 65 °C, heat treatment of enzyme: no, 3 h
[19] = 65 °C, heat treatment of enzyme: no, 6 h
[20] = 65 °C, heat treatment of enzyme: yes, 6 h
[21] = 80 °C, heat treatment of enzyme: no, 0 h
[22] = 80 °C, heat treatment of enzyme: no, 1 h
[23] = 80 °C, heat treatment of enzyme: no, 3 h
[24] = 80 °C, heat treatment of enzyme: no, 6 h
[25] = 80 °C, heat treatment of enzyme: yes, 6 h

- Decomposition efficiency of glycitin family in defatted soybean (30° C., heat treatment of enzyme no, reaction time 0 h): not detected
- Decomposition efficiency of glycitin family in defatted soybean (30° C., heat treatment of enzyme no, reaction time 1 h): not detected
- Decomposition efficiency of glycitin family in defatted soybean (30° C., heat treatment of enzyme no, reaction time 3 h): not detected
- Decomposition efficiency of glycitin family in defatted soybean (30° C., heat treatment of enzyme no, reaction time 6 h): not detected
- Decomposition efficiency of glycitin family in defatted soybean (30° C., heat treatment of enzyme yes, reaction time 6 h): not detected
- Decomposition efficiency of glycitin family in concentrated soybean protein [1]: 52.2%
- Decomposition efficiency of glycitin family in roasted soy flour [1]: 50.9%
- Decomposition efficiency of glycitin family in soymilk [1]: 43.9%
- Decomposition efficiency of glycitin family in concentrated soybean protein [2]: 47.1%
- Decomposition efficiency of glycitin family in roasted soy flour [2]: 34.8%
- Decomposition efficiency of glycitin family in soymilk [2]: not detected
- Decomposition efficiency of glycitin family in concentrated soybean protein [3]: 39.1%
- Decomposition efficiency of glycitin family in roasted soy flour [3]: not detected
- Decomposition efficiency of glycitin family in soymilk [3]: not detected
- Decomposition efficiency of glycitin family in concentrated soybean protein [4]: 28.4%
- Decomposition efficiency of glycitin family in roasted soy flour [4]: not detected
- Decomposition efficiency of glycitin family in soymilk [4]: not detected
- Decomposition efficiency of glycitin family in concentrated soybean protein [5]: 52.8%
- Decomposition efficiency of glycitin family in roasted soy flour [5]: 51.4%
- Decomposition efficiency of glycitin family in soymilk [5]: 44.5%
- Decomposition efficiency of glycitin family in defatted soybean (45° C., heat treatment of enzyme no, reaction time 0 h): not detected
- Decomposition efficiency of glycitin family in defatted soybean (45° C., heat treatment of enzyme no, reaction time 1 h): not detected
- Decomposition efficiency of glycitin family in defatted soybean (45° C., heat treatment of enzyme no, reaction time 3 h): not detected
- Decomposition efficiency of glycitin family in defatted soybean (45° C., heat treatment of enzyme no, reaction time 6 h): not detected
- Decomposition efficiency of glycitin family in defatted soybean (45° C., heat treatment of enzyme yes, reaction time 6 h): not detected
- Decomposition efficiency of glycitin family in concentrated soybean protein [6]: 52.3%
- Decomposition efficiency of glycitin family in roasted soy flour [6]: 51.3%
- Decomposition efficiency of glycitin family in soymilk [6]: 42.6%
- Decomposition efficiency of glycitin family in concentrated soybean protein [7]: 30.2%
- Decomposition efficiency of glycitin family in roasted soy flour [7]: 12.4%
- Decomposition efficiency of glycitin family in soymilk [7]: not detected
- Decomposition efficiency of glycitin family in concentrated soybean protein [8]: 18.8%
- Decomposition efficiency of glycitin family in roasted soy flour [8]: 12.4%
- Decomposition efficiency of glycitin family in soymilk [8]: not detected
- Decomposition efficiency of glycitin family in concentrated soybean protein [9]: 7.5%
- Decomposition efficiency of glycitin family in roasted soy flour [9]: 5.9%
- Decomposition efficiency of glycitin family in soymilk [9]: not detected
- Decomposition efficiency of glycitin family in concentrated soybean protein [10]: 53.2%
- Decomposition efficiency of glycitin family in roasted soy flour [10]: 49.8%
- Decomposition efficiency of glycitin family in soymilk [10]: 45.4%
- Decomposition efficiency of glycitin family in defatted soybean (55° C., heat treatment of enzyme no, reaction time 0 h): not detected
- Decomposition efficiency of glycitin family in defatted soybean (55° C., heat treatment of enzyme no, reaction time 1 h): not detected
- Decomposition efficiency of glycitin family in defatted soybean (55° C., heat treatment of enzyme no, reaction time 3 h): not detected
- Decomposition efficiency of glycitin family in defatted soybean (55° C., heat treatment of enzyme no, reaction time 6 h): not detected
- Decomposition efficiency of glycitin family in defatted soybean (55° C., heat treatment of enzyme yes, reaction time 6 h): not detected
- Decomposition efficiency of glycitin family in concentrated soybean protein [11]: 52.3%
- Decomposition efficiency of glycitin family in roasted soy flour [11]: 50.5%
- Decomposition efficiency of glycitin family in soymilk [11]: 47.8%
- Decomposition efficiency of glycitin family in concentrated soybean protein [12]: 14.2%
- Decomposition efficiency of glycitin family in roasted soy flour [12]: not detected
- Decomposition efficiency of glycitin family in soymilk [12]: not detected
- Decomposition efficiency of glycitin family in concentrated soybean protein [13]: not detected
- Decomposition efficiency of glycitin family in roasted soy flour [13]: not detected
- Decomposition efficiency of glycitin family in soymilk [13]: not detected
- Decomposition efficiency of glycitin family in concentrated soybean protein [14]: not detected
- Decomposition efficiency of glycitin family in roasted soy flour [14]: not detected
- Decomposition efficiency of glycitin family in soymilk [14]: not detected
- Decomposition efficiency of glycitin family in concentrated soybean protein [15]: 52.9%
- Decomposition efficiency of glycitin family in roasted soy flour [15]: 51.7%
- Decomposition efficiency of glycitin family in soymilk [15]: 53.5%
- Decomposition efficiency of glycitin family in defatted soybean (65° C., heat treatment of enzyme no, reaction time 0 h): not detected
- Decomposition efficiency of glycitin family in defatted soybean (65° C., heat treatment of enzyme no, reaction time 1 h): not detected
- Decomposition efficiency of glycitin family in defatted soybean (65° C., heat treatment of enzyme no, reaction time 3 h): not detected
- Decomposition efficiency of glycitin family in defatted soybean (65° C., heat treatment of enzyme no, reaction time 6 h): not detected
- Decomposition efficiency of glycitin family in defatted soybean (65° C., heat treatment of enzyme yes, reaction time 6 h): not detected
- Decomposition efficiency of glycitin family in concentrated soybean protein [16]: 52.2%
- Decomposition efficiency of glycitin family in roasted soy flour [16]: 50.9%
- Decomposition efficiency of glycitin family in soymilk [16]: 43.9%
- Decomposition efficiency of glycitin family in concentrated soybean protein [17]: 5.2%
- Decomposition efficiency of glycitin family in roasted soy flour [17]: not detected
- Decomposition efficiency of glycitin family in soymilk [17]: not detected
- Decomposition efficiency of glycitin family in concentrated soybean protein [18]: not detected
- Decomposition efficiency of glycitin family in roasted soy flour [18]: not detected
- Decomposition efficiency of glycitin family in soymilk [18]: not detected
- Decomposition efficiency of glycitin family in concentrated soybean protein [19]: not detected
- Decomposition efficiency of glycitin family in roasted soy flour [19]: not detected
- Decomposition efficiency of glycitin family in soymilk [19]: not detected
- Decomposition efficiency of glycitin family in concentrated soybean protein [20]: 52.5%
- Decomposition efficiency of glycitin family in roasted soy flour [20]: 50.3%
- Decomposition efficiency of glycitin family in soymilk [20]: 56.8%
- Decomposition efficiency of glycitin family in defatted soybean (80° C., heat treatment of enzyme no, reaction time 0 h): not detected
- Decomposition efficiency of glycitin family in defatted soybean (80° C., heat treatment of enzyme no, reaction time 1 h): not detected
- Decomposition efficiency of glycitin family in defatted soybean (80° C., heat treatment of enzyme no, reaction time 3 h): not detected
- Decomposition efficiency of glycitin family in defatted soybean (80° C., heat treatment of enzyme no, reaction time 6 h): not detected
- Decomposition efficiency of glycitin family in defatted soybean (80° C., heat treatment of enzyme yes, reaction time 6 h): not detected
- Decomposition efficiency of glycitin family in concentrated soybean protein [21]: 52.3%
- Decomposition efficiency of glycitin family in roasted soy flour [21]: 51.3%
- Decomposition efficiency of glycitin family in soymilk [21]: 42.6%
- Decomposition efficiency of glycitin family in concentrated soybean protein [22]: 39.7%
- Decomposition efficiency of glycitin family in roasted soy flour [22]: 19.2%
- Decomposition efficiency of glycitin family in soymilk [22]: 10.7%
- Decomposition efficiency of glycitin family in concentrated soybean protein [23]: 40.5%
- Decomposition efficiency of glycitin family in roasted soy flour [23]: 20.5%
- Decomposition efficiency of glycitin family in soymilk [23]: 22.5%
- Decomposition efficiency of glycitin family in concentrated soybean protein [24]: 41.7%
- Decomposition efficiency of glycitin family in roasted soy flour [24]: 33.6%
- Decomposition efficiency of glycitin family in soymilk [24]: 44.2%
- Decomposition efficiency of glycitin family in concentrated soybean protein [25]: 53.6%
- Decomposition efficiency of glycitin family in roasted soy flour [25]: 50.6%
- Decomposition efficiency of glycitin family in soymilk [25]: 71.4%
Compound: COc1cc2c(=O)c(-c3ccc(O)cc3)coc2cc1O[C@@H]1O[C@H](CO)[C@@H](O)[C@H](O)[C@H]1O [glycitin]
